Test results as given in the supplement of paper PMC8671470.
± gives the standard deviation of the averaged measurements.

test system: HL-60; experiment: cell viability (% survival relative to DMSO control); higher = less cytotoxic; details: 0.01 µM; 72 h; co-treatment: GSK2194069 100 nM
Method in brief: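 For each screen, HL-60 cells in RPMI 1640 with 10% FBS carried either DMSO or 100 nM of one of three metabolic inhibitors while the full library was applied at five tenfold concentrations, 1–10,000 nM, in duplicate. Plates were 384-well and were kept 72 h at 37 °C, 5% CO2. Viability, measured by CellTiter-Glo, was normalised to wells with DMSO and with 10 μM proteasome inhibitor. Where area under the curve appears, it was fitted by four-parameter log-logistic models in drc and PharmacoGx.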

| SMILES | cell viability |
| --- | --- |
| O=C(C(=O)c1ccc(Br)cc1)c1ccc(Br)cc1 [4,4'-Dibromobenzil] | 107.3 ± 0.49% |
| NS(=O)(=O)c1ccc(NC(=O)Cc2ccccc2)cc1 [4-(2-Phenylacetamido)Benzenesulfonamide] | 99.5 ± 13% |
| NCc1ccc(S(N)(=O)=O)cc1 [4-Homosulfanilamide] | 103 ± 6.2% |
| Oc1ncc(F)c(O)n1 [5-fluorouracil] | 104 ± 4.3% |
| NCc1ccc(-c2cccnc2)s1 [(5-Pyrid-3-YLTHIEN-2-YL)METHYLAMINE] | 94.3 ± 13% |
| CC(=O)N[C@@H](CS)C(=O)O [Acetylcysteine] | 103 ± 1.7% |
| CCCCC/C=C\C/C=C\C/C=C\C/C=C\CCCC(=O)C(F)(F)F [Arachidonyl trifluoromethyl ketone] | 101 ± 2.3% |
| O=[As]O[As]=O (stereo not given) [Arsenic trioxide] | 99.1 ± 4.6% |

same assay, conditions: 0.01 µM; 72 h; co-treatment: pictilisib 100 nM

| SMILES | cell viability |
| --- | --- |
| CC(=O)N1CCN(c2ccc(OC[C@@H]3CO[C@@](Cn4ccnc4)(c4ccc(Cl)cc4Cl)O3)cc2)CC1 (racemic) [Ketoconazole] | 95.03 ± 0.18% |
| CCC(CC#N)OC(=O)N[C@@H](C)c1cccc(NC(=O)Nc2ccc(-c3cnco3)c(OC)c2)c1 (stereo in doubt) [AVN-944] | 98.5 ± 2.3% |
| OC[C@H]1OC(O)C[C@@H](O)[C@@H]1O (stereo not given in full) [2-deoxyglucose] | 109.7 ± 0.56% |
| O=C(C(=O)c1ccc(Br)cc1)c1ccc(Br)cc1 [4,4'-Dibromobenzil] | 105 ± 1.2% |
| NS(=O)(=O)c1ccc(NC(=O)Cc2ccccc2)cc1 [4-(2-Phenylacetamido)Benzenesulfonamide] | 85.2 ± 6.6% |
| NCc1ccc(S(N)(=O)=O)cc1 [4-Homosulfanilamide] | 107 ± 3.1% |
| Oc1ncc(F)c(O)n1 [5-fluorouracil] | 75.9 ± 36% |
| NCc1ccc(-c2cccnc2)s1 [(5-Pyrid-3-YLTHIEN-2-YL)METHYLAMINE] | 91.2 ± 27% |
| CC(=O)N[C@@H](CS)C(=O)O [Acetylcysteine] | 101.2 ± 0.78% |
| CCCCC/C=C\C/C=C\C/C=C\C/C=C\CCCC(=O)C(F)(F)F [Arachidonyl trifluoromethyl ketone] | 104 ± 7% |
| O=[As]O[As]=O (stereo not given) [Arsenic trioxide] | 101 ± 4.8% |

same assay, conditions: 0.1 µM; 72 h; co-treatment: AZD3965 100 nM

| SMILES | cell viability |
| --- | --- |
| CC(=O)N1CCN(c2ccc(OC[C@@H]3CO[C@@](Cn4ccnc4)(c4ccc(Cl)cc4Cl)O3)cc2)CC1 (racemic) [Ketoconazole] | 105 ± 4.2% |
| CCC(CC#N)OC(=O)N[C@@H](C)c1cccc(NC(=O)Nc2ccc(-c3cnco3)c(OC)c2)c1 (stereo in doubt) [AVN-944] | 102 ± 2.8% |
| OC[C@H]1OC(O)C[C@@H](O)[C@@H]1O (stereo not given in full) [2-deoxyglucose] | 103 ± 3.9% |
| O=C(C(=O)c1ccc(Br)cc1)c1ccc(Br)cc1 [4,4'-Dibromobenzil] | 99.5 ± 2.2% |
| NS(=O)(=O)c1ccc(NC(=O)Cc2ccccc2)cc1 [4-(2-Phenylacetamido)Benzenesulfonamide] | 99.29 ± 0.26% |
| NCc1ccc(S(N)(=O)=O)cc1 [4-Homosulfanilamide] | 99.06 ± 0.68% |
| Oc1ncc(F)c(O)n1 [5-fluorouracil] | 102 ± 8.5% |
| NCc1ccc(-c2cccnc2)s1 [(5-Pyrid-3-YLTHIEN-2-YL)METHYLAMINE] | 114 ± 1.4% |
| CC(=O)N[C@@H](CS)C(=O)O [Acetylcysteine] | 105 ± 6.2% |
| CCCCC/C=C\C/C=C\C/C=C\C/C=C\CCCC(=O)C(F)(F)F [Arachidonyl trifluoromethyl ketone] | 101 ± 5.3% |
| O=[As]O[As]=O (stereo not given) [Arsenic trioxide] | 98.7 ± 1.7% |

same assay, conditions: 0.1 µM; 72 h; co-treatment: DMSO vehicle

| SMILES | cell viability |
| --- | --- |
| CC(=O)N1CCN(c2ccc(OC[C@@H]3CO[C@@](Cn4ccnc4)(c4ccc(Cl)cc4Cl)O3)cc2)CC1 (racemic) [Ketoconazole] | 104 ± 3% |
| CCC(CC#N)OC(=O)N[C@@H](C)c1cccc(NC(=O)Nc2ccc(-c3cnco3)c(OC)c2)c1 (stereo in doubt) [AVN-944] | 103 ± 1.3% |
| OC[C@H]1OC(O)C[C@@H](O)[C@@H]1O (stereo not given in full) [2-deoxyglucose] | 99.45 ± 0.1% |
| O=C(C(=O)c1ccc(Br)cc1)c1ccc(Br)cc1 [4,4'-Dibromobenzil] | 99.8 ± 1.4% |
| NS(=O)(=O)c1ccc(NC(=O)Cc2ccccc2)cc1 [4-(2-Phenylacetamido)Benzenesulfonamide] | 100 ± 3.6% |
| NCc1ccc(S(N)(=O)=O)cc1 [4-Homosulfanilamide] | 100 ± 3.1% |
| Oc1ncc(F)c(O)n1 [5-fluorouracil] | 98.8 ± 2.7% |
| NCc1ccc(-c2cccnc2)s1 [(5-Pyrid-3-YLTHIEN-2-YL)METHYLAMINE] | 109 ± 2.6% |
| CC(=O)N[C@@H](CS)C(=O)O [Acetylcysteine] | 104 ± 5.7% |
| CCCCC/C=C\C/C=C\C/C=C\C/C=C\CCCC(=O)C(F)(F)F [Arachidonyl trifluoromethyl ketone] | 101 ± 3.3% |
| O=[As]O[As]=O (stereo not given) [Arsenic trioxide] | 97.29 ± 0.59% |

same assay, conditions: 0.1 µM; 72 h; co-treatment: GSK2194069 100 nM

| SMILES | cell viability |
| --- | --- |
| CC(=O)N1CCN(c2ccc(OC[C@@H]3CO[C@@](Cn4ccnc4)(c4ccc(Cl)cc4Cl)O3)cc2)CC1 (racemic) [Ketoconazole] | 109 ± 12% |
| CCC(CC#N)OC(=O)N[C@@H](C)c1cccc(NC(=O)Nc2ccc(-c3cnco3)c(OC)c2)c1 (stereo in doubt) [AVN-944] | 100 ± 5.2% |
| OC[C@H]1OC(O)C[C@@H](O)[C@@H]1O (stereo not given in full) [2-deoxyglucose] | 102 ± 5.5% |
| O=C(C(=O)c1ccc(Br)cc1)c1ccc(Br)cc1 [4,4'-Dibromobenzil] | 105.4 ± 0.27% |
| NS(=O)(=O)c1ccc(NC(=O)Cc2ccccc2)cc1 [4-(2-Phenylacetamido)Benzenesulfonamide] | 99.14 ± 0.66% |
| NCc1ccc(S(N)(=O)=O)cc1 [4-Homosulfanilamide] | 98.5 ± 5.5% |
| Oc1ncc(F)c(O)n1 [5-fluorouracil] | 99 ± 12% |
| NCc1ccc(-c2cccnc2)s1 [(5-Pyrid-3-YLTHIEN-2-YL)METHYLAMINE] | 107.2 ± 0.96% |
| CC(=O)N[C@@H](CS)C(=O)O [Acetylcysteine] | 106 ± 5.4% |
| CCCCC/C=C\C/C=C\C/C=C\C/C=C\CCCC(=O)C(F)(F)F [Arachidonyl trifluoromethyl ketone] | 108 ± 11% |
| O=[As]O[As]=O (stereo not given) [Arsenic trioxide] | 98.8 ± 2.5% |

same assay, conditions: 0.1 µM; 72 h; co-treatment: pictilisib 100 nM

| SMILES | cell viability |
| --- | --- |
| CC(=O)N1CCN(c2ccc(OC[C@@H]3CO[C@@](Cn4ccnc4)(c4ccc(Cl)cc4Cl)O3)cc2)CC1 (racemic) [Ketoconazole] | 106 ± 18% |
| CCC(CC#N)OC(=O)N[C@@H](C)c1cccc(NC(=O)Nc2ccc(-c3cnco3)c(OC)c2)c1 (stereo in doubt) [AVN-944] | 93.8 ± 8.5% |
| OC[C@H]1OC(O)C[C@@H](O)[C@@H]1O (stereo not given in full) [2-deoxyglucose] | 99.6 ± 1.3% |
| O=C(C(=O)c1ccc(Br)cc1)c1ccc(Br)cc1 [4,4'-Dibromobenzil] | 95.5 ± 13% |
| NS(=O)(=O)c1ccc(NC(=O)Cc2ccccc2)cc1 [4-(2-Phenylacetamido)Benzenesulfonamide] | 94 ± 7% |
| NCc1ccc(S(N)(=O)=O)cc1 [4-Homosulfanilamide] | 97.5 ± 1.2% |
| Oc1ncc(F)c(O)n1 [5-fluorouracil] | 113 ± 31% |
| NCc1ccc(-c2cccnc2)s1 [(5-Pyrid-3-YLTHIEN-2-YL)METHYLAMINE] | 113 ± 2.4% |
| CC(=O)N[C@@H](CS)C(=O)O [Acetylcysteine] | 106 ± 1.6% |
| CCCCC/C=C\C/C=C\C/C=C\C/C=C\CCCC(=O)C(F)(F)F [Arachidonyl trifluoromethyl ketone] | 102 ± 9.9% |
| O=[As]O[As]=O (stereo not given) [Arsenic trioxide] | 93.6 ± 4.6% |

same assay, conditions: 1 µM; 72 h; co-treatment: AZD3965 100 nM

| SMILES | cell viability |
| --- | --- |
| CC(=O)N1CCN(c2ccc(OC[C@@H]3CO[C@@](Cn4ccnc4)(c4ccc(Cl)cc4Cl)O3)cc2)CC1 (racemic) [Ketoconazole] | 109 ± 11% |
| CCC(CC#N)OC(=O)N[C@@H](C)c1cccc(NC(=O)Nc2ccc(-c3cnco3)c(OC)c2)c1 (stereo in doubt) [AVN-944] | 35.4 ± 4.8% |
